Results reported in patent US7649012B2, “Compounds, pharmaceutical compositions containing same, and methods of use for same” (FASgen, Inc., priority 2002, dated 2010).
Values after ≈ are worked out from the molar mass of the structure shown. Like-named read-outs stand apart in the source and are kept apart here.

Tests used:
[1] = tested on: MCF-7 human breast cancer cells; test: Crystal violet cell growth assay; assay type: cell-based; settings: MCF7, MCF-7, 72 hours, read-out: Cr. Violet(IC50)
Procedure: The crystal violet assay measure cell growth but not cytotoxicity. This assay employs crystal violet staining of fixed cells in 96-well plates with subsequent solubilization and measurement of OD490 on a spectrophotometer. The OD490 corresponds to cell growth per unit time measured. Cells are treated with the compounds of interest or vehicle controls and IC50 for each compound is computed.
To measure the cytotoxicity of specific compounds against cancer cells, 5×10^4 MCF-7 human breast cancer cells, obtained from the American Type Culture Collection are plated per well in 24 well plates in DMEM medium with 10% fetal bovine serum, penicillin, and streptomycin. Following overnight culture at 37° C. and 5% CO2, the compounds to be tested, dissolved in DMSO, are added to the wells in 1 μl volume at the following concentrations: 50, 40, 30, 20, and 10 μg/ml in triplicate. Additional concentrations are tested if required. 1 μl of DMSO is added to triplicate wells are the vehicle control. C75 is run at 10, and 5 μg/ml in triplicate as positive controls.
After 72 hours of incubation, cells are stained with 0.5 ml of Crystal Violet stain (0.5% in 25% methanol) in each well. After 10 minutes, wells are rinsed, air dried, and then solubilized with 0.5 ml 10% sodium dodecylsulfate with shaking for 2 hours.

[2] = Weight loss screen in Balb/C mice; assay type: in vivo; settings: for change in vivo at 60 mg/kg: ip; for change in vivo at 60 mg/kg / change in vivo at 30 mg/kg: read-out: Weight Loss; for Deaths in weight loss screen: 60 mg/kg
Procedure: Balb/C mice (Jackson Labs) are utilized for the initial weight loss screening. Animals are housed in temperature and 12 hour day/night cycle rooms and fed mouse chow and water ad lib. Three mice are utilized for each compound tested with vehicle controls in triplicate per experiment. For the experiments, mice are housed separately for each compound tested three mice to a cage. […] Mice are observed and weighed daily; average weights and standard errors are computed with Excel (Microsoft). The experiment continues until treated animals reach their pretreatment weights. […]

[3] = tested on: Pseudomonas aeruginosa (ATCC # 27853); test: Broth microdilution MIC; assay type: cell-based; settings: for PSAE/MH(MIC): Mueller Hinton Broth; for PSAE/Tsoy(MIC): Trypticase Soy Broth
Procedure: (§1) A broth microdilution assay is used to assess the antimicrobial activity of the compounds. […] Microorganisms tested include Staphylococcus aureus (ATCC # 29213), Enterococcus faecalis (ATCC # 29212), Pseudomonas aeruginosa (ATCC # 27853), and Escherichia coli (ATCC # 25922). The assay is performed in two growth media, Mueller Hinton Broth and Trypticase Soy Broth. […] Colonies are suspended in sterile broth so that the turbidity matches the turbidity of a 0.5 McFarland standard. The inoculum is diluted 1:10 in sterile broth (Mueller Hinton or Trypticase soy) and 195 ul is dispensed per well of a 96-well plate. The compounds to be tested, dissolved in DMSO, are added to the wells in 5 ul volume at the following concentrations: 25, 12.5, 6.25, 3.125, 1.56 and 0.78 ug/ml in duplicate. Additional concentrations are tested if required. 5 ul of DMSO added to duplicate wells are the vehicle control. Serial dilutions of positive control compounds, vancomycin (E. faecalis and S. aureus) and tobramycin (E. coli and P. aeruginosa), are included in each run. After 24 hours of incubation at 37° C., plates are read at OD600 on a Molecular Devices SpectraMax Plus Spectrophotometer. Average OD600 values are computed using SOFTmax Pro Software (Molecular Devices) and MIC values are determined by linear regression analysis using Prism version 3.02 (Graph Pad Software, San Diego).

[4] = tested on: Staphylococcus aureus (ATCC # 29213); test: Broth microdilution MIC; assay type: cell-based; settings: for MIC: Staphylococcus aureus, ATCC29213
Procedure: as §1

[5] = tested on: Enterococcus faecalis (ATCC # 29212); test: Broth microdilution MIC; assay type: cell-based; settings: for MIC: Enterococcus faecalis, ATCC29212
Procedure: as §1

[6] = tested on: Escherichia coli (ATCC # 25922); test: Broth microdilution MIC; assay type: cell-based; settings: for MIC: Escherichia coli, ATCC25922
Procedure: as §1

[7] = tested on: MCF-7 human breast cancer cells; test: XTT cytotoxicity assay; assay type: cell-based; settings: MCF7, MCF-7, 72 hours, some cells marked (M)
Procedure: The XTT assay is a non-radioactive alternative for the [^51 Cr] release cytotoxicity assay. XTT is a tetrazolium salt that is reduced to a formazan dye only by metabolically active, viable cells. The reduction of XTT is measured spectrophotometrically as OD490-OD650.
To measure the cytotoxicity of specific compounds against cancer cells, 9×10^3 MCF-7 human breast cancer cells, obtained from the American Type Culture Collection are plated per well in 96 well plates in DMEM medium with 10% fetal bovine serum, insulin, penicillin, and streptomycin. Following overnight culture at 37° C. and 5% CO2, the compounds to be tested, dissolved in DMSO, are added to the wells in 1 μl volume at the following concentrations: 80, 40, 20, 10, 5, 2.5, 1.25, and 0.625 μg/ml in triplicate. Additional concentrations are tested if required. 1 μl of DMSO is added to triplicate wells are the vehicle control. C75 is run at 40, 20, […], and 5 μg/ml in triplicate as positive controls. After 72 hours of incubation, cells are incubated for 4 hours with the XTT reagent as per manufacturer's instructions (Cell Proliferation Kit II (XTT) Roche). Plates are read at OD490 and OD650 on a Molecular Devices SpectraMax Plus Spectrophotometer. Three wells containing the XTT reagent without cells serve as the plate blank. XTT data are reported as OD490-OD650-Averages and standard error of the mean are computed using SOFTmax Pro software (Molecular Dynamics).
The IC50 for the compounds is defined as the concentration of drug leading to a 50% reduction in OD490-OD650 compared to controls. The OD490-OD650 are computed by the SOFTmax PRO software (Molecular Devices) for each compound concentration. IC50 is calculated by linear regression, plotting the FAS activity as percent of control versus drug concentrations. Linear regression, best-fit line, r^2, and 95% confidence intervals are determined using Prism Version 3.0 (Graph Pad Software).

[8] = Mus musculus, 24 h, 60 mg/kg intraperitoneally, day1
[9] = Mueller Hinton Broth, read-out: SA/MH(MIC)
[10] = Trypticase Soy Broth, read-out: SA/Tsoy(MIC)
[11] = Mus musculus, 48 h, 60 mg/kg intraperitoneally, day2
[12] = Mueller Hinton Broth, read-out: EF/MH(MIC)
[13] = Trypticase Soy Broth, read-out: EF/Tsoy(MIC)
[14] = Trypticase Soy Broth, read-out: Ecoli/Tsoy(MIC)
[15] = Mus musculus, 48 h, 30 mg/kg, day2

Structure (SMILES) | IC50 [1] [µg/mL] | PSAE/MH(MIC) [3] | PSAE/Tsoy(MIC) [3] | MIC [4, 9] [µg/mL] | MIC [4, 10] [µg/mL] | Ecoli/MH(MIC) ([6]; Mueller Hinton Broth) | Ecoli/Tsoy(MIC) ([6]; Trypticase Soy Broth) | IC50 [7] [µg/mL] | MIC [5, 12] [µg/mL] | MIC [5, 13] [µg/mL] | MIC [6, 14] [µg/mL] | also measured
C/C=C/C(C)=C/C1(C)SC(=O)C=C1O (stereo not shown) | > 50 | Neg | Neg | 52 (≈ 247 µM) | 87 (≈ 414 µM) | Neg | Neg | > 80 | – | – | – | change in vivo at 60 mg/kg [2, 8]: 4.1%; EF/MH(MIC) ([5]; Mueller Hinton Broth): Neg; EF/Tsoy(MIC) ([5]; Trypticase Soy Broth): Neg
CCCCCCCC[C@@]1(C)SC(=O)C(C(C)=O)=C1O (racemic) | 8.4 (≈ 29.5 µM) | Neg | Neg | 3.4 (≈ 12 µM) | 1.4 (≈ 4.92 µM) | Neg | – | 125 ± 0.7 (≈ 439 µM) | 2.5 (≈ 8.79 µM) | 2 (≈ 7.03 µM) | 177 (≈ 622 µM) | change in vivo at 60 mg/kg [2, 11]: 8.2%
CCCCCCC1(C)SC(=O)C=C1OC (stereo not shown) | 26.3 ± 4.3 (≈ 115 µM) | Neg | Neg | 45 (≈ 197 µM) | 48 (≈ 210 µM) | Neg | – | 9.4 ± 1.5 (≈ 41.2 µM) | 43 (≈ 188 µM) | 126 (≈ 552 µM) | 264 (≈ 1160 µM) | Deaths in weight loss screen ([2]; day1, three mice): 3 of 3 dead; change in vivo at 30 mg/kg ([2]; Mus musculus, 24 h, 30 mg/kg, day1): 8.7%; change in vivo at 10 mg/kg ([2]; Mus musculus, 72 h, 10 mg/kg (multiple doses), day3): 1%
CCCCCCCCC1(C)SC(=O)C=C1OC (stereo not shown) | 21.4 (≈ 83.5 µM) | Neg | Neg | 252 (≈ 983 µM) | 67 (≈ 261 µM) | Neg | Neg | 16.4 ± 2.3 (≈ 64 µM) | 72 (≈ 281 µM) | – | – | change in vivo at 60 mg/kg [2, 8]: 6.1%; EF/Tsoy(MIC) ([5]; Trypticase Soy Broth): Neg
CCCCCCCCC1(C)SC(=O)C=C1O (stereo not shown) | 28.7 (≈ 118 µM) | Neg | Neg | – | 47 (≈ 194 µM) | Neg | – | 17.6 ± 0.1 (≈ 72.6 µM) | 16.9 (≈ 69.7 µM) | 3.3 (≈ 13.6 µM) | 278 (≈ 1150 µM) | change in vivo at 30 mg/kg ([2]; Mus musculus, 72 h): 4.8%; SA/MH(MIC) ([4]; Mueller Hinton Broth): Neg
CCCCCC[C@@]1(C)SC(=O)C=C1OCC(=O)NCC(=O)O (racemic) | > 50 | Neg | Neg | 78 (≈ 237 µM) | 225 (≈ 683 µM) | Neg | – | > 80 | 121 (≈ 367 µM) | 173 (≈ 525 µM) | 235 (≈ 713 µM) | change in vivo at 60 mg/kg [2, 11]: 3.5%
CCCCCCC1(C)SC(=O)C=C1O (stereo not shown) | > 50 | Neg | Neg | 48 (≈ 224 µM) | 31 (≈ 145 µM) | Neg | Neg | > 80 | 98 (≈ 457 µM) | 43 (≈ 201 µM) | – | Deaths in weight loss screen ([2]; day4, three mice): 60 mg/kg: 3 of 3 dead(day4)
C=CCOC1=CC(=O)S[C@]1(C)CCCCCCCC (racemic) | 11 (≈ 38.9 µM) | Neg | Neg | 127 (≈ 450 µM) | 85 (≈ 301 µM) | Neg | Neg | 14.5 ± 1.5 (≈ 51.3 µM) | 238 (≈ 843 µM) | 238 (≈ 843 µM) | – | Deaths in weight loss screen ([2]; day3, three mice): 3 of 3 dead; change in vivo at 30 mg/kg [2, 15]: 4.7%
CCCCCCCCC1(C)SC(=O)C(C(C)O)=C1OC (stereo not shown) | 23.2 (≈ 77.2 µM) | Neg | Neg | 53.3 ± 2.1 (≈ 177 µM) | 16.2 ± 3.8 (≈ 53.9 µM) | Neg | – | 21 ± 2.9 (≈ 69.9 µM) | 77 (≈ 256 µM) | 25 (≈ 83.2 µM) | 249 (≈ 829 µM) | change in vivo at 30 mg/kg ([2]; Mus musculus, 48 h): 0.2%
CCCCCCCC[C@@]1(C)SC(=O)C=C1OCC(=O)OCC (racemic) | 17.9 ± 5.1 (≈ 54.5 µM) | Neg | Neg | – | 83 (≈ 253 µM) | Neg | Neg | 35.3 ± 10.4 (≈ 107 µM) | 86 (≈ 262 µM) | – | – | change in vivo at 30 mg/kg ([2]; Mus musculus, 24 h): 4.5%; change in vivo at 60 mg/kg [2, 8]: 1.8%; SA/MH(MIC) ([4]; Mueller Hinton Broth): Neg; EF/Tsoy(MIC) ([5]; Trypticase Soy Broth): Neg
C=CCC1=C(OC)C(C)(CCCCCCCC)SC1=O (stereo not shown) | 22.3 (≈ 75.2 µM) | Neg | Neg | – | 98 (≈ 331 µM) | Neg | Neg | 55 ± 2 (≈ 186 µM) | – | 169 (≈ 570 µM) | – | change in vivo at 60 mg/kg [2, 8]: 7.9%; SA/MH(MIC) ([4]; Mueller Hinton Broth): Neg; EF/MH(MIC) ([5]; Mueller Hinton Broth): Neg
CCCC/C=C/C=C/C1(C)SC(=O)C=C1O (stereo not shown) | 43.9 ± 4.8 (≈ 184 µM) | Neg | Neg | – | 55 (≈ 231 µM) | Neg | – | 59.4 ± 6.4 (≈ 249 µM) | 78 (≈ 327 µM) | 42 (≈ 176 µM) | 263 (≈ 1100 µM) | change in vivo at 60 mg/kg ([2]; Mus musculus, 144 h): 11%; SA/MH(MIC) ([4]; Mueller Hinton Broth): Neg
C=CCOC1=CC(=O)S[C@]1(C)CCCCCC (racemic) | 8.1 (≈ 31.8 µM) | Neg | Neg | 73 (≈ 287 µM) | 54 (≈ 212 µM) | Neg | Neg | 9 ± 1.1 (≈ 35.4 µM) | – | 158 (≈ 621 µM) | – | Deaths in weight loss screen ([2]; day2, three mice): 2 of 3 dead; change in vivo at 30 mg/kg [2, 15]: 8.8%; EF/MH(MIC) ([5]; Mueller Hinton Broth): Neg
C=CCOC(=O)OC1=CC(=O)S[C@]1(C)CCCCCCCC (racemic) | 35.8 (≈ 110 µM) | Neg | Neg | 57 (≈ 175 µM) | 28 (≈ 85.8 µM) | – | – | 34.9 ± 10 (≈ 107 µM) | 79 (≈ 242 µM) | 75 (≈ 230 µM) | 87 (≈ 266 µM) | change in vivo at 30 mg/kg ([2]; Mus musculus, 48 h): 1%; change in vivo at 60 mg/kg [2, 11]: 6.2%; MIC ([6]; Mueller Hinton Broth, read-out: Ecoli/MH(MIC)): 82 µg/mL (≈ 251 µM)
